The text below walks through data of patent publication US10894784B2, “Heteroarylbenzimidazole compounds” (BAYER PHARMA AKTIENGESELLSCHAFT, priority 2015, dated 2021).

SMILES strings stand for the structures.

Chain of TBK1 (Q9UHD2 whole entry): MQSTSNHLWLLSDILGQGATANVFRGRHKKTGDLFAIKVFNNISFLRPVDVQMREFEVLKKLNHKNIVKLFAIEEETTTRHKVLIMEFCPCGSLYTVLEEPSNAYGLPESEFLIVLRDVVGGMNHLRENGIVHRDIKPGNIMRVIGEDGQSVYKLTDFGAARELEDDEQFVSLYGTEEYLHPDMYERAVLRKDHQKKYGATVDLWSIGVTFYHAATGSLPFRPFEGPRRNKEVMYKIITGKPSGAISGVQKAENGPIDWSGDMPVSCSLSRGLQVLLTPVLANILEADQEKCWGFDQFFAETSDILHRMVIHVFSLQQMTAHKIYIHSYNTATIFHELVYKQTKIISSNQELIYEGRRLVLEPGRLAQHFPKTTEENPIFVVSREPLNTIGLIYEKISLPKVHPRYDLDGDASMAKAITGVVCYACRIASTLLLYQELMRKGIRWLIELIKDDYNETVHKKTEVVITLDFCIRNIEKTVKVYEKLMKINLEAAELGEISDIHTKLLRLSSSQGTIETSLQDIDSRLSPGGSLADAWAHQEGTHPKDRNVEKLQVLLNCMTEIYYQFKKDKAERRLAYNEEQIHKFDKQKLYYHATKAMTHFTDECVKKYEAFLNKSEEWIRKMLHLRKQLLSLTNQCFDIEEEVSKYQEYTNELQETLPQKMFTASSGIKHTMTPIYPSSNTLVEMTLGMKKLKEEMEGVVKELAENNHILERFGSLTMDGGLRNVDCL

This assay addresses TBK1 (Homo sapiens (Human), UniProt Q9UHD2). Nature of the assay: TBK1 low ATP kinase assay (in vitro assay 1). The note with it: in vitro assay 1, read-out: TBK1 low ATP kinase assay IC50. Format: biochemical.
A word on the IC50: it is the concentration that inhibits the measured activity by half. Turning to `COCCOCCS(=O)(=O)N1CCN(Cc2ccnc(Nc3nc4ccc(-c5ncncc5OC)cc4[nH]3)c2)CC1` [Example 35.01.11, N-{4-[(4-{[2-(2-methoxyethoxy)ethyl]sulfonyl}piperazin-1-yl)methyl]pyridin-2-yl}-6-(5-methoxypyrimidin-4-yl)-1H-benzimidazol-2-amine], the IC50 was 28.6 nM.

Consider `CC(c1ccnc(Nc2nc3ccc(-c4cc(N5CC(F)(F)C5)ncn4)cc3[nH]2)c1)N1CCN(C(=O)CC(F)(F)F)CC1` (single isomer, unassigned) [Example 116.03, 1-(4-{(1R or 1S)-1-[2-({6-[6-(3,3-difluoroazetidin-1-yl)pyrimidin-4-yl]-1H-benzimidazol-2-yl}amino)pyridin-4-yl]ethyl}piperazin-1-yl)-3,3,3-trifluoropropan-1-one], for which the IC50 was 1.3 nM.

On to `Cc1cc(-c2ccc3nc(Nc4cc(C(C)N5CCN(C(=O)C6(C(F)(F)F)CC6)CC5)ccn4)[nH]c3c2F)ncn1` (single isomer, unassigned) [Example 172.04, {4-[(1R or 1S)-1-(2-{[7-fluoro-6-(6-methylpyrimidin-4-yl)-1H-benzimidazol-2-yl]amino}pyridin-4-yl)ethyl]piperazin-1-yl}[1-(trifluoromethyl)cyclopropyl]methanone], for which the IC50 stood at 20.9 nM.

In the case of `COc1nccc(-c2ccc3nc(Nc4cc(CN5CCN(C(=O)C6CCC6)CC5)ccn4)[nH]c3c2)n1` [Example 25.01.02, cyclobutyl{4-[(2-{[6-(2-methoxypyrimidin-4-yl)-1H-benzimidazol-2-yl]amino}pyridin-4-yl)methyl]piperazin-1-yl}methanone], the IC50 was 218 nM.

As to `O=C(C1CC1)N1CCN(Cc2ccnc(Nc3nc4ccc(-c5cc(NC6CC6)ncn5)cc4[nH]3)c2)CC1` [Example 151.03, cyclopropyl(4-{[2-({6-[6-(cyclopropylamino)pyrimidin-4-yl]-1H-benzimidazol-2-yl}amino)pyridin-4-yl]methyl}piperazin-1-yl)methanone], the IC50 was found to be 1 nM.

Turning to `Cc1nccc(-c2ccc3nc(Nc4cc(CN5CCN(C(=O)CC(F)(F)F)CC5)ccn4)[nH]c3c2)c1Cl` [Example 130.02, 1-{4-[(2-{[6-(3-chloro-2-methylpyridin-4-yl)-1H-benzimidazol-2-yl]amino}pyridin-4-yl)methyl]piperazin-1-yl}-3,3,3-trifluoropropan-1-one], the IC50 was found to be 190 nM.

In the case of `Cc1cc(CN2CCN(C(=O)CC(F)(F)F)CC2)cc(Nc2nc3ccc(-c4ccncn4)cc3[nH]2)n1` [Example 23.02.01, 3,3,3-trifluoro-1-{4-[(2-methyl-6-{[6-(pyrimidin-4-yl)-1H-benzimidazol-2-yl]amino}pyridin-4-yl)methyl]piperazin-1-yl}propan-1-one], the IC50 came out at 20.4 nM.

For the compound `Cc1nccc(-c2ccc3nc(Nc4cc(CN5CCN(C(=O)C6CC6)CC5)ccn4)[nH]c3c2)c1Cl` [Example 130.03, {4-[(2-{[6-(3-chloro-2-methylpyridin-4-yl)-1H-benzimidazol-2-yl]amino}pyridin-4-yl)methyl]piperazin-1-yl}(cyclopropyl)methanone], the IC50 amounted to 250 nM.

Regarding `O=C(C1CC1)N1CCN(Cc2ccnc(Nc3nc4ccc(-c5cc(OCC6(C(F)(F)F)CC6)ncn5)cc4[nH]3)c2)CC1` [Example 158.03, cyclopropyl{4-[(2-{[6-(6-{[1-(trifluoromethyl)cyclopropyl]methoxy}pyrimidin-4-yl)-1H-benzimidazol-2-yl]amino}pyridin-4-yl)methyl]piperazin-1-yl}methanone], the IC50 is 13 nM.

In the case of `COc1cncnc1-c1ccc2nc(Nc3cc(C(C)N4CCN(C(=O)C5CCC5)CC4)ccn3)[nH]c2c1` (racemic) [Example 35.02.04, (rac)-cyclobutyl{4-[1-(2-{[6-(5-methoxypyrimidin-4-yl)-1H-benzimidazol-2-yl]amino}pyridin-4-yl)ethyl]piperazin-1-yl}methanone], the IC50 is 10.4 nM.

Turning to `O=C(C1CC1)N1CCN(Cc2ccnc(Nc3nc4ccc(-c5ncnc6c5COC6)cc4[nH]3)c2)CC1` [Example 182.03, cyclopropyl{4-[(2-{[6-(5,7-dihydrofuro[3,4-d]pyrimidin-4-yl)-1H-benzimidazol-2-yl]amino}pyridin-4-yl)methyl]piperazin-1-yl}methanone], the IC50 came to 136 nM.

`COc1c(-c2ccc3nc(Nc4cc(CN5CCN(C(=O)CC(F)(F)F)CC5)ccn4)[nH]c3c2)ncnc1N(C)CC1CC1` [Example 110.04, 1-[4-({2-[(6-{6-[(cyclopropylmethyl)(methyl)amino]-5-methoxypyrimidin-4-yl}-1H-benzimidazol-2-yl)amino]pyridin-4-yl}methyl)piperazin-1-yl]-3,3,3-trifluoropropan-1-one]: the IC50 is 62 nM.

`CC(C)(C)OC(=O)N1CCN(Cc2ccnc(Nc3nc4ccc(-c5nc(C6CC6)no5)cc4[nH]3)c2)CC1` [Example 17.01, tert-butyl 4-[(2-{[6-(3-cyclopropyl-1,2,4-oxadiazol-5-yl)-1H-benzimidazol-2-yl]amino}pyridin-4-yl)methyl]piperazine-1-carboxylate]: the IC50 is 97.8 nM.

With `CC(C)(C)OC(=O)N1CCN(Cc2ccnc(Nc3nc4ccc(-c5ncnc6c5COC6)cc4[nH]3)c2)CC1` [Example 182.01, tert-butyl 4-[(2-{[6-(5,7-dihydrofuro[3,4-d]pyrimidin-4-yl)-1H-benzimidazol-2-yl]amino}pyridin-4-yl)methyl]piperazine-1-carboxylate], the IC50 stood at 275 nM.

For the compound `COc1c(-c2ccc3nc(Nc4cc(C(C)N5CCN(C(=O)CC(F)(F)F)CC5)ccn4)[nH]c3c2)ncnc1N(C)C` (single isomer, unassigned) [Example 107.02.03, 1-(4-{(1R or 1S)-1-[2-({6-[6-(dimethylamino)-5-methoxypyrimidin-4-yl]-1H-benzimidazol-2-yl}amino)pyridin-4-yl]ethyl}piperazin-1-yl)-3,3,3-trifluoropropan-1-one], the IC50 was determined as 5.4 nM.

On to `Cc1cc(CN2CCN(C(=O)C3CC3)CC2)cc(Nc2nc3ccc(-c4ccnc(C)n4)cc3[nH]2)n1` [Example 24.02.01, cyclopropyl{4-[(2-methyl-6-{[6-(2-methylpyrimidin-4-yl)-1H-benzimidazol-2-yl]amino}pyridin-4-yl)methyl]piperazin-1-yl}methanone], for which the IC50 came out at 45.8 nM.

Turning to `CCn1cc(-c2ccc3nc(Nc4cc(CN5CCN(C(=O)CC(F)(F)F)CC5)ccn4)[nH]c3c2OCC(C)C)cn1` [Example 52.01, 1-{4-[(2-{[6-(1-ethyl-1H-pyrazol-4-yl)-7-(2-methylpropoxy)-1H-benzimidazol-2-yl]amino}pyridin-4-yl)methyl]piperazin-1-yl}-3,3,3-trifluoropropan-1-one], the IC50 was determined as 64.7 nM.

Take `Cc1noc(-c2ccc3nc(Nc4cc(CN5CCN(C(=O)CC(F)(F)F)CC5)ccn4)[nH]c3c2)n1` [Example 16.01.02, 3,3,3-trifluoro-1-{4-[(2-{[6-(3-methyl-1,2,4-oxadiazol-5-yl)-1H-benzimidazol-2-yl]amino}pyridin-4-yl)methyl]piperazin-1-yl}propan-1-one]: the IC50 was 109 nM.
